One test deals with h5-HT3A receptor (Homo sapiens (Human), UniProt P46098). As to the kind of experiment: Agonist activity at recombinant human 5-HT3A receptors, [Ca2+]i in HEK293 cells. The following applies: at 1 μM, normalized to the response of 5-HT (5-HT response = 100% at 3 μM); NR = no response. It counts as cell-based. As for the experimental part: Human embryonic kidney (HEK293) cells expressing the h5-HT3A receptor subunit were seeded directly into poly-D-lysine coated, black-walled, clear bottomed, 96 well plates with approximately 1×10^5 cells per well. After 48 hrs incubation in DMEM growth media (100 μL), cells were washed twice (each 200 μL) in Hank's balanced salt solution (Invitrogen) before incubation (1 hr) with Fluo-4 acetoxymethyl (AM) ester (100 μL, 2.5 μM; Molecular Probes). Cells were washed twice (each 200 μL) in Hank's balanced salt solution and incubated for a further 30 min in Hank's balanced salt solution (100 μL) prior to assay (25° C.). Alteration in [Ca^2+]i was measured (relative fluorescence units [RFU]) using a Flexstation (excitation 488 nm and emission 515 nm; frequency of recording 3 sec). After recording for at least 80 sec, vehicle (Hank's balanced salt solution) or drug was automatically administered to the well (50 μL). Baseline was calculated from the 5 data points immediately prior to the first drug administration and the maximum response was that achieved over the 240 sec following drug administration. In all experiments the muscarinic receptor agonist carbachol (1 mM) was added 240 sec after the test drug administration.
Chain of h5-HT3A receptor (P46098 24-478): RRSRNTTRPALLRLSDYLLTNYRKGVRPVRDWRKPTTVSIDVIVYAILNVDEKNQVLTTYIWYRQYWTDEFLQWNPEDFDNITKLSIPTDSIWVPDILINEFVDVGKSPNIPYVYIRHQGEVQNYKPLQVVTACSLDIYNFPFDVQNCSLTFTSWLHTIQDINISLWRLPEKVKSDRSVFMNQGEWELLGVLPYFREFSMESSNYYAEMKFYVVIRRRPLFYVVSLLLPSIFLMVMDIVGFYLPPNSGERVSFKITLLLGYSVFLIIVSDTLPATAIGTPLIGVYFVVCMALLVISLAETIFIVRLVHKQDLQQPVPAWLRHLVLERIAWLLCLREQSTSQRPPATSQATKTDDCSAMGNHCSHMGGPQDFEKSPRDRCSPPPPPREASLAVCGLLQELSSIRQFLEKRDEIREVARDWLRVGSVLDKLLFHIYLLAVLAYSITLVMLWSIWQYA
As for `O=C1c2cccc3ccn(c23)CCN1[C@@H]1CN2CCC1CC2` [Example 2, (S)-2-(quinuclidin-3-yl)-3,4-dihydro-[1,4]diazepino[6,7,1-hi]indol-1(2H)-one], the “HEK293 h5-HT3A % agonist response” value is on record as 7%.

On to `Cc1cn2c3c(cccc13)C(=O)N([C@@H]1CN3CCC1CC3)CC2` [Example 3, (S)-7-methyl-2-(quinuclidin-3-yl)-3,4-dihydro-[1,4]diazepino[6,7,1-hi]indol-1(2H)-one], for which the “HEK293 h5-HT3A % agonist response” value is given as 13%.

Take `O=C1c2cccc3[nH]c(=O)n(c23)CCN1[C@@H]1CN2CCC1CC2` [Example 25, 6-((S)-quinuclidin-3-yl)-5,6-dihydroimidazo[4,5,1-jk][1,4]benzodiazepine-2,7(1H, 4H)-dione]: the “HEK293 h5-HT3A % agonist response” value is on record as 83%.

A further test deals with human 5-HT3 receptor (Homo sapiens (Human), UniProt P46098). As to the kind of experiment: Radioligand binding assay (SPA format), affinity for the human 5-HT3 receptor.
Chain of human 5-HT3 receptor (P46098 24-478): as above
Details: not given
As for the experimental part: The relative affinity of the various compounds for the human 5-HT3 receptor was measured in a radioligand binding assay, using a scintillation proximity assay (SPA) format. Test compounds were dissolved to 10 mM in 100% DMSO, then serially diluted at 10× assay concentrations in 100% DMSO in 96-well polypropylene plates and further diluted to 4× assay concentrations with the assay buffer. Samples were incubated in 50 mM Tris-HCl, pH 7.5, 3 mM MgCl2, 1 mM EDTA and 10% DMSO with 10 nM [9-methyl-^3H]BRL-43694 (Perkin Elmer), 3 μg of human 5-HT3 receptor membranes (Perkin Elmer) and 0.5 mg/mL SPA beads (WGA PVT, Amersham Biosciences) in a final volume of 0.2 mL. Binding reactions were set up in wells of PicoPlates-96 (Perkin Elmer) by adding consecutively 50 μL of each competing compound or buffer, SPA beads, the radioligand and 5-HT3 receptor membranes. After an overnight incubation at room temperature on a Nutator mixer, plates were centrifuged for 15 min at 1,500 rpm, followed by incubation in the dark for 30 min. Radioactivity was counted in the TopCount microplate counter (Perkin Elmer) for 5 min. Total binding control contained compound dilution buffer only; nonspecific binding was determined in the presence of 30 μM MDL-72222. Specific binding was determined by subtracting nonspecific binding from total binding. All experiments were performed in duplicate using ten concentrations of competing ligand, with ondansetron included as a control in every run. IC50 values were determined from specific binding data using XLfit4.1 curve fitting software from IDBS Ltd. The inhibition constant (Ki) was calculated from the Cheng Prusoff equation: (Ki=IC50/(1+(L/KD)), where L=concentration of radioligand in the assay, and KD=affinity of the radioligand for the receptor.
Consider `COc1ccc(Cn2cc3c4c(cccc42)C(=O)N(CC24CCN(CC2)CC4)CC3)cc1` [Example 27, 6-(4-methoxybenzyl)-2-(quinuclidin-4-ylmethyl)-2,3,4,6-tetrahydro-1H-azepino[5,4,3-cd]indol-1-one], for which the inhibitory constant (Ki) (in general, the equilibrium dissociation constant of an inhibitor or competing ligand from its target) turned out to be 8 nM.

The compound `COc1cc2c3c(cnn3CCN([C@@H]3CN4CCC3CC4)C2=O)c1` [Example 10, (S)-4-methoxy-7-(quinuclidin-3-yl)-8,9-dihydro-[1,4]diazepino[6,7,1-hi]indazol-6(7H)-one] came in with a Ki of 14 nM.

Staying with this test, now noted: 10 μM compound, radioligand binding; read-out: h5-HT3A % inhibition @ 10 μM.
`O=C1c2cccc3nc(-c4ccc(F)cc4)n(c23)CCN1[C@@H]1CN2CCC1CC2` [Example 22, 2-(4-fluorophenyl)-6-((S)-quinuclidin-3-yl)-5,6-dihydroimidazo[4,5,1-jk][1,4]benzodiazepin-7(4H)-one]: the inhibition (in general, the share of the control response that was lost under treatment) at 10 µM came to 69%.

Take `CC(C)c1nc2cccc3c2n1CCN([C@H]1CN2CCC1CC2)C3=O` [Example 18, 2-isopropyl-6-((R)-quinuclidin-3-yl)-5,6-dihydroimidazo[4,5,1-jk][1,4]benzodiazepin-7(4H)-one]: the inhibition at 10 µM came out at 51%.

In the case of `CC(C)c1nc2cccc3c2n1CCN([C@@H]1CN2CCC1CC2)C3=O` [Example 19, 2-isopropyl-6-((S)-quinuclidin-3-yl)-5,6-dihydroimidazo[4,5,1-jk][1,4]benzodiazepin-7(4H)-one], the inhibition at 10 µM came out at 74%.

With `O=C1c2cccc3nc(-c4ccccc4)n(c23)CCN1[C@H]1CN2CCC1CC2` [Example 20, 2-phenyl-6-((R)-quinuclidin-3-yl)-5,6-dihydroimidazo[4,5,1-jk][1,4]benzodiazepin-7(4H)-one], the inhibition at 10 µM was 23%.

The test is the same for the next values; noted with them: [9-methyl-3H]BRL-43694 10 nM, human 5-HT3 receptor membranes, Cheng Prusoff; read-out: h5-HT3A Ki.
As to `O=C1c2cccc3cnn(c23)CCN1CC12CCN(CC1)CC2` [Example 32, 7-(quinuclidin-4-ylmethyl)-8,9-dihydro-[1,4]diazepino[6,7,1-hi]indazol-6(7H)-one], the inhibition constant Ki stood at 73 nM.

Turning to `O=C1c2cccc3ccn(c23)CCN1[C@H]1CN2CCC1CC2` [Example 1, (R)-2-(quinuclidin-3-yl)-3,4-dihydro-[1,4]diazepino[6,7,1-hi]indol-1(2H)-one], the Ki is 74 nM.

In the case of `O=C1c2cccc3c2N(CCN1[C@@H]1CN2CCC1CC2)S(=O)(=O)N3` [Example 26, 6-((S)-quinuclidin-3-yl)-5,6-dihydro-1H-[1,2,5]thiadiazolo[4,3,2-jk][1,4]benzodiazepin-7(4H)-one 2,2-dioxide], the Ki was 701 nM.

On to `O=C1c2cccc3ccn(c23)CCCN1[C@@H]1CN2CCC1CC2` [Example 6, (S)-2-(quinuclidin-3-yl)-2,3,4,5-tetrahydro-1H-[1,5]diazocino[3,2,1-hi]indol-1-one], for which the inhibitory constant (Ki) came to 205 nM.

`CCc1nc2cccc3c2n1CCN([C@@H]1CN2CCC1CC2)C3=O` [Example 17, 2-ethyl-6-((S)-quinuclidin-3-yl)-5,6-dihydroimidazo[4,5,1-jk][1,4]benzodiazepin-7(4H)-one]: the inhibitory constant (Ki) stood at 130 nM.

As to `O=C1c2cccc3[nH]cc(c23)CCN1CC12CCN(CC1)CC2` [Example 28, 2-(quinuclidin-4-ylmethyl)-2,3,4,6-tetrahydro-1H-azepino[5,4,3-cd]indol-1-one], the Ki came to 30 nM.

On to `O=C1c2cc(O)cc3cnn(c23)CCN1[C@@H]1CN2CCC1CC2` [Example 12, (S)-4-hydroxy-7-(quinuclidin-3-yl)-8,9-dihydro-[1,4]diazepino[6,7,1-hi]indazol-6(7H)-one], for which the Ki came to 2 nM.

In the case of `O=C1c2cccc3ccn(c23)CCN1[C@@H]1CN2CCC1CC2` [Example 2, (S)-2-(quinuclidin-3-yl)-3,4-dihydro-[1,4]diazepino[6,7,1-hi]indol-1(2H)-one], the inhibitory constant (Ki) worked out at 4 nM.

For `Cc1cn2c3c(cccc13)C(=O)N([C@@H]1CN3CCC1CC3)CC2` [Example 3, (S)-7-methyl-2-(quinuclidin-3-yl)-3,4-dihydro-[1,4]diazepino[6,7,1-hi]indol-1(2H)-one], the Ki was 5 nM.

Take `O=C1c2cccc3[nH]c(=O)n(c23)CCN1[C@@H]1CN2CCC1CC2` [Example 25, 6-((S)-quinuclidin-3-yl)-5,6-dihydroimidazo[4,5,1-jk][1,4]benzodiazepine-2,7(1H, 4H)-dione]: the inhibition constant Ki came out at 7 nM.

With `Cc1cn2c3c(cc(Cl)cc13)C(=O)N([C@@H]1CN3CCC1CC3)CC2` [Example 4, (S)-9-chloro-7-methyl-2-(quinuclidin-3-yl)-3,4-dihydro-[1,4]diazepino[6,7,1-hi]indol-1(2H)-one], the Ki was determined as 0.2 nM.

Turning to `O=C1c2cccc3nc(-c4ccccc4)n(c23)CCN1[C@@H]1CN2CCC1CC2` [Example 21, 2-phenyl-6-((S)-quinuclidin-3-yl)-5,6-dihydroimidazo[4,5,1-jk][1,4]benzodiazepin-7(4H)-one], the inhibition constant Ki is 406 nM.

Consider `O=C1c2cccc3ccn(c23)CCCN1[C@H]1CN2CCC1CC2` [Example 5, (R)-2-(quinuclidin-3-yl)-2,3,4,5-tetrahydro-1H-[1,5]diazocino[3,2,1-hi]indol-1-one], for which the Ki stood at 416 nM.

Consider `O=C1c2cccc3nc(-c4ccccc4Cl)n(c23)CCN1[C@@H]1CN2CCC1CC2` [Example 23, 2-(2-chlorophenyl)-6-((S)-quinuclidin-3-yl)-5,6-dihydroimidazo[4,5,1-jk][1,4]benzodiazepin-7(4H)-one], for which the Ki was found to be 206 nM.

For `Cc1cc2c3c(cnn3CCN([C@@H]3CN4CCC3CC4)C2=O)c1` [Example 11, (S)-4-methyl-7-(quinuclidin-3-yl)-8,9-dihydro-[1,4]diazepino[6,7,1-hi]indazol-6(7H)-one], the inhibition constant Ki stood at 0.8 nM.

With `O=C1c2cccc3ncn(c23)CCN1[C@@H]1CN2CCC1CC2` [Example 13, 6-((S)-quinuclidin-3-yl)-5,6-dihydroimidazo[4,5,1-jk][1,4]benzodiazepin-7(4H)-one], the inhibitory constant (Ki) amounted to 32 nM.

For the compound `O=C1c2cc(Cl)cc3cnn(c23)CCN1[C@@H]1CN2CCC1CC2` [Example 8, (S)-4-chloro-7-(quinuclidin-3-yl)-8,9-dihydro-[1,4]diazepino[6,7,1-hi]indazol-6(7H)-one], the Ki worked out at 0.5 nM.

Regarding `O=C1c2cc(F)cc3cnn(c23)CCN1[C@@H]1CN2CCC1CC2` [Example 9, (S)-4-fluoro-7-(quinuclidin-3-yl)-8,9-dihydro-[1,4]diazepino[6,7,1-hi]indazol-6(7H)-one], the Ki was 6 nM.

Still in this test, the particulars now being: read-out: h5-HT3A % inhibition @ 10 μM.
For the compound `Cc1nc2cccc3c2n1CCN([C@@H]1CN2CCC1CC2)C3=O` [Example 15, 2-methyl-6-((S)-quinuclidin-3-yl)-5,6-dihydroimidazo[4,5,1-jk][1,4]benzodiazepin-7(4H)-one], the inhibition at 10 µM turned out to be 80%.

Take `Cc1nc2cccc3c2n1CCN([C@H]1CN2CCC1CC2)C3=O` [Example 14, 2-methyl-6-((R)-quinuclidin-3-yl)-5,6-dihydroimidazo[4,5,1-jk][1,4]benzodiazepin-7(4H)-one]: the inhibition at 10 µM was 40%.

For the compound `CCc1nc2cccc3c2n1CCN([C@H]1CN2CCC1CC2)C3=O` [Example 16, 2-ethyl-6-((R)-quinuclidin-3-yl)-5,6-dihydroimidazo[4,5,1-jk][1,4]benzodiazepin-7(4H)-one], the inhibition at 10 µM was found to be 39%.

Take `O=C1c2cccc3[nH]c(=O)n(c23)CCN1[C@H]1CN2CCC1CC2` [Example 24, 6-((R)-quinuclidin-3-yl)-5,6-dihydroimidazo[4,5,1-jk][1,4]benzodiazepine-2,7(1H, 4H)-dione]: the inhibition at 10 µM is 75%.

The record behind these values is patent US9045501B2, “5-HT3 receptor modulators, methods of making, and use thereof” (Albany Molecular Research, Inc., priority 2009, dated 2015).
